Results published in patent publication US6627621B2, “Neutrophil function inhibitors” (Dainichieseika Color & Chemicals Mfg. Co., Ltd., priority 2001, dated 2003).

How the values were obtained:
Format in all cases: cell-based, Guinea pig
neutrophils [1] = test: Ingesting ability of neutrophils (ingestion of opsonized zymosan, ingestion index); settings: 0.01, 0.1 and 1 mM, 37° C. 20 minutes preincubation; OPZ (1:6) 30 minutes; FIG. 3
Method: (§1) A glycogen solution (0.17% glycogen-0.9% NaCl solution) was administered into the abdominal cavity of a Guinea pig. About 15 hours later, the abdominal cavity was washed with a 0.4% sodium citrate-0.9% NaCl solution to collect an exudate. The exudate contained neutrophils of 95% or higher purity. After the abdominal cavity exudate was washed twice with phosphate buffer (pH 7.4), the neutrophils were suspended in phosphate buffer (pH 7.4) to prepare a neutrophil suspension. Inhibiting effects of a glucosamine salt on neutrophil functions were investigated with respect to the generation of active oxygen, ingesting effect and extra-cellular releasing effect on granular components by methods to be described subsequently herein. Data are each shown as a mean ± standard deviation S.D. of three or more samples. Further, a test was conducted using an AVOVA. Glucosamine hydrochloride was added at 0.01 mM, 0.1 mM and 1 mM to aliquots of a neutrophil suspension (neutrophil concentration: 10^7 cells/mL), respectively, followed by incubation at 37° C. for 20 minutes. To each of the reaction mixtures, opsonized zymosan (OPZ; count ratio of OPZ to neutrophils: 1:6) was added, followed by a reaction for 30 minutes. The count of the yeast ingested by neutrophils was determined under a microscope, and was expressed in terms of an ingestion index.

neutrophils [2] = test: Generation of active oxygen by neutrophils (cytochrome c reduction method); settings: 0.01, 0.1 and 1 mM, 37° C. 20 minutes preincubation
Method: A glycogen solution (0.17% glycogen-0.9% NaCl solution) was administered into the abdominal cavity of a Guinea pig. About 15 hours later, the abdominal cavity was washed with a 0.4% sodium citrate-0.9% NaCl solution to collect an exudate. The exudate contained neutrophils of 95% or higher purity. After the abdominal cavity exudate was washed twice with phosphate buffer (pH 7.4), the neutrophils were suspended in phosphate buffer (pH 7.4) to prepare a neutrophil suspension.
Inhibiting effects of a glucosamine salt on neutrophil functions were investigated with respect to the generation of active oxygen, ingesting effect and extra-cellular releasing effect on granular components by methods to be described subsequently herein. Data are each shown as a mean ± standard deviation S.D. of three or more samples. Further, a test was conducted using an AVOVA.
Glucosamine hydrochloride was added at 0.01 mM, 0.1 mM and 1 mM to aliquots of a neutrophil suspension (neutrophil concentration: 10^6 cells/mL), respectively, followed by incubation at 37° C. for 20 minutes. To each of the reaction mixtures, N-formyl-1-methionyl-1-leucyl-1-phenylalanine (FMLP; 10^−7 M) or opsonized zymosan (OPZ; count ratio of OPZ to neutrophils: 1:6) was added as an emigrating factor to stimulate neutrophils for 30 minutes. Generated active oxygen was measured by the cytochrome c reduction method. […]

neutrophils [3] = test: Extracellular release of granular enzyme lysozyme from neutrophils; settings: 0.01, 0.1 and 1 mM, 37° C. 20 minutes preincubation; OPZ (1:6) 30 minutes; FIG. 4
Method: as §1, with “[…] The reaction mixture was centrifuged, the supernatant was collected, and then, the activity” for “To each”, “granular enzyme, lysozyme, released to the outside” for “reaction mixtures, opsonized zymosan (OPZ; count ratio”, “cells” for “OPZ to neutrophils: 1:6)”, “measured” for “added, followed”, “calorimetrically quantitating dissolution” for “a reaction for 30 minutes. The count”, “Micrococcus lysodeikticus cells.” for “the yeast ingested by neutrophils was determined under a microscope, and was expressed in terms of an ingestion index.”

neutrophils [4] = test: Emigrating ability of neutrophils (Boyden's chamber, C5a as emigrating factor); settings: 0.01, 0.1 and 1 mM, 37° C. 20 minutes preincubation, 3 μm membrane, FIG. 5
Method: A glycogen solution (0.17% glycogen-0.9% NaCl solution) was administered into the abdominal cavity of a Guinea pig. About 15 hours later, the abdominal cavity was washed with a 0.4% sodium citrate-0.9% NaCl solution to collect an exudate. The exudate contained neutrophils of 95% or higher purity. After the abdominal cavity exudate was washed twice with phosphate buffer (pH 7.4), the neutrophils were suspended in phosphate buffer (pH 7.4) to prepare a neutrophil suspension. The emigrating ability of neutrophils was measured by using as an emigrating factor the component factor C5 a generated by reacting fresh serum with a yeast. Described specifically, glucosamine hydrochloride was added at 0.01 mM, 0.1 mM and 1 mM to aliquots of a neutrophil suspension (neutrophil concentration: 3×10^6 cells/mL), respectively, followed by incubation at 37° C. for 20 minutes. The reaction mixtures were separately placed in Boyden's chambers each of which was equipped with a nitrocellulose membrane of 3 μm in pore size, and were then incubated at 37° C. for 20 minutes. After the reaction, distances over which neutrophils had emigrated were measured under a microscope.

## Cl.N[C@H]1C(O)O[C@H](CO)[C@@H](O)[C@@H]1O (some centres unmarked) [glucosamine hydrochloride, Glucosamine hydrochloride]
Neutrophils [1]
  ingestion of opsonized zymosan by neutrophils: inhibited in a concentration-dependent manner
Neutrophils [2]; FMLP 10^-7 M stimulation 30 minutes, FIG. 1
  formation of active oxygen by FMLP: inhibited in a concentration-dependent manner
Neutrophils [2]; OPZ (1:6) stimulation 30 minutes, FIG. 2
  formation of active oxygen by opsonized zymosan: inhibited in a concentration-dependent manner
Neutrophils [3]
  extracellular release of the granular enzyme (lysozyme) from neutrophils by opsonized zymosan: significantly inhibited
Neutrophils [4]
  emigrating ability of neutrophils: inhibited in a concentration-dependent manner
